The values that follow come from US10660876B2, “Amino compounds for treatment of medical disorders” (Achillion Pharmaceuticals, Inc., priority 2015, dated 2020).

Chain of Human Factor D (P00746 26-253): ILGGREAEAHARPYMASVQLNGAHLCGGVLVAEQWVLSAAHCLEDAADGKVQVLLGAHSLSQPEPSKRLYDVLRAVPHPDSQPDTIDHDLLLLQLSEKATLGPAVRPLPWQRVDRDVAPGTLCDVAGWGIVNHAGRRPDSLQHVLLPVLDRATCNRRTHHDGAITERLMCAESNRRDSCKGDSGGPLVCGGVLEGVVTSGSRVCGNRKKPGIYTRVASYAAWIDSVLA

The assay has as its target Human Factor D (Homo sapiens (Human), UniProt P00746). Put plainly: Human Factor D Assay. The assay is classed as biochemical. The settings on record: Table 1; Factor D purified from human serum, 80 nM, substrate Z-L-Lys-SBzl; read-out: IC50. As to the method:
Example 12. Human Factor D Assay
Human Factor D (purified from human serum, Complement Technology, Inc.) at 80 nM final concentration is incubated with test compound at various concentrations for 5 minutes at room temperature in 50 mM Tris, 1M NaCl, pH 7.5. A synthetic substrate Z-L-Lys-SBzl and DTNB (Ellman's reagent) are added to final concentrations of 100 μM each. Absorbance at 405 nm (A405) is recorded at 30 second intervals for 30 minutes using a microplate spectrophotometer. IC50 values are calculated by nonlinear regression of complement Factor D reaction rates as a function of test compound concentration.
In the case of `CC(=O)c1cn(CC(=O)N2C[C@H](F)C[C@H]2C(=O)NCc2cccc(Cl)c2F)c2cc(NS(=O)(=O)C(F)(F)F)ccc12` [Compound 2, (2S,4R)-1-(2-(3-acetyl-6-(trifluoromethyl-sulfonamido)-1H-indol-1-yl)acetyl)-N-(3-chloro-2-fluorobenzyl)-4-fluoropyrrolidine-2-carboxamide], the IC50 is under 1000 nM. Take `CC(=O)c1cn(CC(=O)N2C[C@H](F)C[C@H]2C(=O)Nc2cccc(-c3ccccc3Cl)c2F)c2ccc(Nc3cncnc3)cc12` [Compound 3, (2S,4R)-1-(2-(3-acetyl-5-(pyrimidin-5-ylamino)-1H-indol-1-yl)acetyl)-N-(2′-chloro-2-fluorobiphenyl-3-yl)-4-fluoropyrrolidine-2-carboxamide]: the IC50 is under 1000 nM. With `CC(=O)c1cn(CC(=O)N2C[C@H](F)C[C@H]2C(=O)Nc2cccc(Br)n2)c2ccc(Nc3cncnc3)cc12` [Compound 4, (2S,4R)-1-(2-(3-acetyl-5-(pyrimidin-5-ylamino)-1H-indol-1-yl)acetyl)-N-(6-bromopyridin-2-yl)-4-fluoropyrrolidine-2-carboxamide], the IC50 was under 1000 nM. With `CC(=O)c1cn(CC(=O)N2C[C@H](F)C[C@H]2C(=O)Nc2cccc(Cl)n2)c2ccc(Nc3cncnc3)cc12` [Compound 6, (2S,4R)-1-(2-(3-acetyl-5-(pyrimidin-5-ylamino)-1H-indol-1-yl)acetyl)-N-(6-chloropyridin-2-yl)-4-fluoropyrrolidine-2-carboxamide], the IC50 is under 1000 nM. Under `NC(=O)c1nn(CC(=O)N2C[C@H](F)C[C@H]2C(=O)Nc2cccc(-c3ccccc3Cl)c2F)c2ccc(Nc3cccnn3)cc12` [Compound 9, 1-(2-((2S,4R)-2-(2′-chloro-2-fluorobiphenyl-3-ylcarbamoyl)-4-fluoropyrrolidin-1-yl)-2-oxoethyl)-5-(pyridazin-3-ylamino)-1H-indazole-3-carboxamide] stands under 1000 nM; under `NC(=O)c1nn(CC(=O)N2C[C@H](F)C[C@H]2C(=O)Nc2cccc(-c3ccccc3Cl)c2F)c2ccc(Nc3cncnc3)cc12` [Compound 10, 1-(2-((2S,4R)-2-(2′-chloro-2-fluorobiphenyl-3-ylcarbamoyl)-4-fluoropyrrolidin-1-yl)-2-oxoethyl)-5-(pyrimidin-5-ylamino)-1H-indazole-3-carboxamide], under 1000 nM. Take `NC(=O)c1nn(CC(=O)N2C[C@H](F)C[C@H]2C(=O)Nc2cccc(Cl)n2)c2ccc(Nc3cccnn3)cc12` [Compound 11, 1-(2-((2S,4R)-2-(6-chloropyridin-2-ylcarbamoyl)-4-fluoropyrrolidin-1-yl)-2-oxoethyl)-5-(pyridazin-3-ylamino)-1H-indazole-3-carboxamide]: the IC50 was under 1000 nM. Under `NC(=O)c1nn(CC(=O)N2C[C@H](F)C[C@H]2C(=O)Nc2cccc(Cl)n2)c2ccc(Nc3cncnc3)cc12` [Compound 12, 1-(2-((2S,4R)-2-(6-chloropyridin-2-ylcarbamoyl)-4-fluoropyrrolidin-1-yl)-2-oxoethyl)-5-(pyrimidin-5-ylamino)-1H-indazole-3-carboxamide] stands under 1000 nM; under `N#Cc1cnc(Nc2ccc3c(c2)c(C(N)=O)nn3CC(=O)N2C[C@H](F)C[C@H]2C(=O)Nc2cccc(-c3ccccc3Cl)c2F)nc1` [Compound 13, 1-(2-((2S,4R)-2-(2′-chloro-2-fluorobiphenyl-3-ylcarbamoyl)-4-fluoropyrrolidin-1-yl)-2-oxoethyl)-5-(5-cyanopyrimidin-2-ylamino)-1H-indazole-3-carboxamide], under 1000 nM; under `NC(=O)c1nn(CC(=O)N2C[C@H](F)C[C@H]2C(=O)Nc2cccc(-c3ccccc3Cl)c2F)c2ccc(Nc3cnc(C(F)(F)F)nc3)cc12` [Compound 14, 1-(2-((2S,4R)-2-(2′-chloro-2-fluorobiphenyl-3-ylcarbamoyl)-4-fluoropyrrolidin-1-yl)-2-oxoethyl)-5-(2-(trifluoromethyl)pyrimidin-5-ylamino)-1H-indazole-3-carboxamide], under 1000 nM.
